Data on two compounds can be found in PMC11577759, “The structure of lipopeptides impacts their antiviral activity and mode of action against SARS-CoV-2 in vitro” (Applied and Environmental Microbiology, 2024).

In brackets after ≈: the same amount, converted by molar mass. Like-named read-outs stand apart in the source and are kept apart here. Marks after values point to notes of the source that are not given here. Starred links: 1 amine or outer side, 2 acyl side, 3 side chain; linkers in the order of their positions; H or OH if unused. Positions of bridges follow the written chain, without caps; N, C: chain ends. Non-standard residues stand in square brackets, D forms with d. Residues, ends and D or L forms follow the SMILES beside them. X1 = CC(C)CCCCCCCCC[C@H](CC(=O)[*:1])O[*:2]

The subject of data set [1] is SARS-CoV-2. In kind it is cell-based. As to conditions: cells pre-treated, surfactin 35, WLIP 20, fengycin 50, caspofungin 100 µg/mL.
For data set [2], the system named is SARS-CoV-2. Nature of the data set: Direct antiviral assay by viral titration (TCID50). The following applies: 1 h incubation with virus, vs virus alone.
The test system of another data set is Vero cells. The arrangement: method as in earlier work. The following applies: ref 38 (Shekunov et al.); cited from earlier work.
Data set [3] can be described thus: Cytotoxicity, CyQUANT XTT cell viability assay. As to conditions: Chlorocebus sp. (African green monkey), Vero E6 cells. In kind it is cell-based, Chlorocebus sp. How it is done: (§1) Chlorocebus sp. kidney epithelial cells (Vero E6; ATCC VERO C1008) were cultured in Dulbecco’s Modified Eagle medium (DMEM) High Glucose w/ Stable Glutamine w/ Sodium Pyruvate (VWR, USA) supplemented with 2% (vol/vol) of decomplemented fetal bovine serum (FBS, Biowest, France) and 1% (vol/vol) Penicillin-Streptomycin (VWR, USA). The cells were grown at 37°C in a humidified 5% CO2 atmosphere. Cells were routinely passaged when they reached 100% confluence and were passaged until passage 15.
(§2) The cytotoxic activity of the lipopeptides was assessed using a CyQUANT XTT Cell Viability Assay (Thermo Fisher Scientific) according to the manufacturer’s instructions. […] The cells were then incubated for 72 h at 37°C. The kit was then used following the manufacturer’s instructions, and the plates were read at 450 nm and 660 nm using a Multiskan GO Microplate Spectrophotometer (Thermo Fisher Scientific). The percentage of viable cells was calculated as (AT450 − AT660 − AB450) / (AC450 − AC660) × 100%, where AT450, AT660, AB450, AC450, and AC660 represent the absorbance of the tested well at 450 nm, of the tested well at 660 nm, of the blank (only medium) at 450 nm, of the control cells at 450 nm, and of the control cells at 660 nm, respectively. One hundred percent viability corresponds to the viability of uninfected cells. DMSO concentrations ranging from 0.5% (vol/vol) to 0.001% (vol/vol) were used as a negative control for the assay. Every sample was tested in triplicate.
A general note: Tetrazolium dyes change colour on reduction, which living cells bring about.

In data set [4] the test system is SARS-CoV-2. The arrangement: method as in doi:10.3390/applmicrobiol2030052. The following applies: 1 mg/mL, Vero E6 cells; cited from earlier work.
Data set [5] relates to SARS-CoV-2. Nature of the data set: Budding inhibition assay. Format: cell-based. The following applies: 10 h pi, surfactin 35 µg/mL. As for the experimental part:
Fresh medium was added to the cells, and the plates were incubated for 5 h at 37°C. The supernatant was discarded, and lipopeptides were added to the cells. A sample of cell supernatant was taken every hour for 4 h. After infection, the control was kept at 4°C to inhibit the release of virions, and act as a positive control of the experiment. […] Every sample was tested in triplicate.

Data set [6] has as its system SARS-CoV-2. Nature of the data set: Binding inhibition: pre-treatment of SARS-CoV-2 and incubation on cells. Format: cell-based. As to conditions: virus pre-treated, surfactin 35, WLIP 20, fengycin 50, caspofungin 100 µg/mL.
Data set [7] deals with SARS-CoV-2. The data set is described as follows: Replication / antiviral assay, viral RNA in supernatant by RT-qPCR. Format: cell-based. As to conditions: for Viral RNA concentration per milliliter: surfactin 35, WLIP 20, caspofungin 100 µg/mL; for Reduction of viral RNA concentration / Reduction in viral RNA: surfactin 35, WLIP 20, fengycin 50, caspofungin 100 µg/mL; for Reduction in viral RNA: 72 h (Fig. 5). For orientation: Real-time PCR tracks product formation cycle by cycle.

Data set [8] has as its system SARS-CoV-2. As to conditions: surfactin 35, WLIP 20, fengycin 50, caspofungin 100 µg/mL; 100% = untreated infected cells at 37°C.
Description: To determine the impact of lipopeptides on the fusion step, intracellular viral RNA was quantified after infection of cells with SARS-CoV-2 but before the budding step. […] The cells were pre-chilled for 15 min on ice. The cells were infected with SARS-CoV-2 (MOI of 10) in DMEM + 2% FBS and incubated for 2 h on ice with gentle agitation. The inoculum was removed, and the cells were gently washed three times with ice-cold DPBS. The positive control was inactivated to determine the basal viral RNA concentration after binding of the virus. The lipopeptides were added to room temperature DMEM + 2% (vol/vol) FBS and incubated at 37°C for 7 h. […] The cells were rinsed with DPBS, and the wells were dried. The samples were inactivated for 30 min at 70°C before quantification of the viral RNA by RT-qPCR. Every sample was tested in triplicate.
A further data set relates to Vero E6 cells. The data set is described as follows: Cytotoxicity, CyQUANT XTT cell viability assay. Format: cell-based, Chlorocebus sp. As to conditions: 72 h. As for the experimental part: as §1, §2
For data set [9], the system named is SARS-CoV-2. The data set is described as follows: Binding inhibition: pre-infection treatment of cells. The following applies: cells pre-treated and cleared from unbound lipopeptide before infection; fengycin 50 µg/mL. Format: cell-based. How it is done:
For the binding inhibition assays, four different conditions (Fig. 1) were tested to assess the potential of lipopeptides to inhibit the attachment of SARS-CoV-2 to cells in different settings. […] In these assays, SARS-CoV-2 was used at an MOI of 10, and every sample was tested in triplicate. Some steps were performed at 4°C to rigidify the cellular and viral membranes, allowing the virus to bind to the cells but not fuse with the […], as detailed below.
The cell supernatant was discarded, and the lipopeptides were added to the cells, which were subsequently incubated for 1 h at 37°C with gentle agitation. […] The viral stock was then added to the cells, which were subsequently incubated on ice for 1 h with gentle agitation.

Consider `CC(C)CCCCCCCCC[C@@H]1CC(=O)N[C@@H](CCC(=O)O)C(=O)N[C@@H](CC(C)C)C(=O)N[C@H](CC(C)C)C(=O)N[C@@H](C(C)C)C(=O)N[C@@H](CC(=O)O)C(=O)N[C@H](CC(C)C)C(=O)N[C@@H](CC(C)C)C(=O)O1` [Surfactin] (EL[dL]VD[dL]L; linker N-C via X1), for which the “Binding percentage of SARS-CoV-2 to cells” value is on record as 10.0% in the data set on SARS-CoV-2 [1] and 34.7% in the data set on SARS-CoV-2 [6]. Further, the “Reduction in viral titer (direct effect)” value in the data set on SARS-CoV-2 [2] (100 µg/mL) is recorded as 1.6 log; with SARS-CoV-2 [2] (surfactin 35, WLIP 20, fengycin 50, caspofungin 100 µg/mL, serum diluted five times), “did not directly inactivate SARS-CoV-2”. Moreover, the IC50 in the data set on Vero cells is 0.6 µg/mL (≈ 0.579 µM). The IC50 at 72 h in [3] (Vero E6 cells (kidney epithelial cells), 72 h, XTT, mean (standard deviation), fengycin and caspofungin determined at higher concentrations in a subsequent experiment, read-out: IC50 (half maximal inhibitory concentration, cytotoxicity)) turned out to be 51.5 µg/mL (≈ 49.7 µM). In data set [3] (45 µg/mL), the viability (commonly the share of living cells, or the viability signal relative to a control) at 72 h, 45 µg/mL is approximately 0%. In addition, the viability at 72 h in [3] (surfactin 35, WLIP 20, fengycin 50, caspofungin 100 µg/mL, 72 h, Vero E6 (Fig. 5)) stood at 98.5%. For the same compound, in the data set with SARS-CoV-2 [4], the SARS-CoV-2 infectivity entry is on record as “able to reduce SARS-CoV-2 infectivity”. For the same compound, in the data set on SARS-CoV-2 [5], the “Reduction of RNA concentration (budding)” value worked out at 1 log. The “RNA concentration per milliliter in supernatant (budding)” value with SARS-CoV-2 [5] (infected cells without treatment 8646.9) is 858.7 RNA concentration per milliliter. The figures for the “Maximal RNA reduction at 100 µg/mL” value in the data set on SARS-CoV-2 [7] and in the data set on SARS-CoV-2 [7] (listed as surfactin) were 6.3-log and 6.3 log, respectively. Further, in the data set with SARS-CoV-2 [7] (45 µg/mL), the “Viral RNA” value is given as “no viral RNA was detected”. In the data set on SARS-CoV-2 [7] (100 µg/mL, at every timepoint (24, 48, 72 h)), the “SARS-CoV-2 RNA concentration” value is given as “non-detectable levels”. In addition, the “Viral RNA concentration per milliliter” value is reported as 2.5 × 10^2 RNA concentration per milliliter in the data set with SARS-CoV-2 [7] (24 h pi, serum diluted five times) and 5.7 × 10^1 RNA concentration per milliliter in the data set with SARS-CoV-2 [7] (72 h pi). The “Reduction of viral RNA concentration” value in the data set on SARS-CoV-2 [7] (24 h pi, serum diluted five times, […]) turned out to be 1.1 log; in the data set with SARS-CoV-2 [7] (72 h pi, serum diluted five times, […]), 4.6 log. Also, the EC50 in the data set with SARS-CoV-2 [7] (Severe acute respiratory syndrome coronavirus 2, Vero C1008, 72 h, […], mean (standard deviation), read-out: EC50 (half maximal effective concentration)) was 50 µg/mL (≈ 48.2 µM). Further, in the data set on SARS-CoV-2 [7], the “Reduction in viral RNA” value stood at 2.9 log. The Fusion percentage with SARS-CoV-2 [8] worked out at 10.4%.

Take Fengycin: the “Binding percentage of SARS-CoV-2 to cells” value amounted to 11.3% in the data set with SARS-CoV-2 [1], 54% in the data set with SARS-CoV-2 [9] and 21.7% in the data set with SARS-CoV-2 [6]. Moreover, the Cell viability with Vero E6 cells (100 µg/mL, Vero E6) is 64.1%; in the data set with Vero E6 cells (surfactin 35, WLIP 20, fengycin 50, caspofungin 100 µg/mL, Vero E6 (Fig. 5)), 89.9%. For the same compound, the “IC50 (half maximal inhibitory concentration, cytotoxicity)” value in the data set on Vero E6 cells (Vero E6 cells, XTT, mean (standard deviation), fengycin and caspofungin determined at higher concentrations in a subsequent experiment) is on record as 295.3 (28.3)^b µg/mL. The “Reduction of viral RNA concentration” value in the data set on SARS-CoV-2 [7] (24 h pi, serum diluted five times, vs infected cells (Fig. 6)) was “did not reduce the RNA concentration”; in the data set with SARS-CoV-2 [7] (72 h pi, serum diluted five times, vs infected cells (Fig. 6)), 0.6 log. Further, in the data set with SARS-CoV-2 [7] (SARS-CoV-2 MOI 0.01, Vero E6, viral RNA at 72 h pi by RT-qPCR, mean (standard deviation)), the “EC50 (half maximal effective concentration)” value is reported as 71.7 (20.7) µg/mL. In the data set with SARS-CoV-2 [7], the “Reduction in viral RNA” value was determined as 3.2 log. This compound also returned a Fusion percentage in the data set on SARS-CoV-2 [8] of 17.2%.
